In patent publication US6485754B1, “Bone cement paste containing an antibiotic” (Merck Patent GmbH, priority 1997, dated 2002):

Experiment: Elution of antibiotics from cured α-BSM cement ball into phosphate buffer
Assay type: physicochemical
Conditions: other material used as carrier instead of the hydroxyapatite-like cement pastes
Protocol: 1 g of cement powder (α-BSM, WO 96/36562) and 0.7 ml of water in which 42 mg of gentamycin sulfate have been dissolved are mixed with one another. A paste is obtained by this means, which is shaped to give a ball of about 1 cm diameter. This ball is added at 37° C. to 20 ml of phosphate buffer according to Sörensen (pH 7.4). After approximately 10 minutes, the cement ball cures. At defined times, samples are taken from the buffer solution and the concentration of the antibiotic is determined microbiologically or chromatographically according to standard methods. The determined antibiotic concentrations in μg/ml correspond to the concentrations released in the buffer.
Analogously to Example 1, a previously cured ball of agar/gentamycin sulfate is eluted and the corresponding concentrations are measured.
Analogously to Example 1, an α-BSM/cefazolin ball is eluted and the corresponding concentrations are measured.
Analogously to Example 1, an α-BSM/netilmycin sulfate ball is eluted and the corresponding concentrations are measured.

## gentamycin sulfate
  release characteristics of the antibiotic (in words): released just as rapidly
